Laboratory results: patent publication US9919021B2, “Brain permeant peptidomimetic beta-secretase 1 inhibitors for the treatment or prophylaxis of neurological disorders or conditions” (IBET—INSTITUTO DE BIOLOGIA EXPERIMENTAL E TECNOLOGICA, priority 2016, dated 2018)
Like-named read-outs stand apart in the source and are kept apart here. Starred links: 1 amine or outer side, 2 acyl side, 3 side chain; linkers in the order of their positions; H or OH if unused. Non-standard residues stand in square brackets, D forms with d. Residues, ends and D or L forms follow the SMILES beside them. LeuΨ(S-CHOHCH2)Ala = CC(C)C[C@H](N[*:1])[C@@H](O)C[C@@H](C)C(=O)[*:2]

Columns and labels:
[1] = in vivo pharmacokinetic study in mice after intravenous Ia; details: for detection in brain samples: after intravenous Ia 0.53 mg/kg, HPLC-FLU and LC-MS
in vitro = in vitro ADME, mice; details: mouse, brain homogenate, t1/2 brain
Description: An assay for in vitro metabolic stability was accomplished in order to test the influence of N-terminal acylation on the metabolization profile of the compounds. Therefore, compounds were prepared at 50 μM in phosphate-buffered saline (PBS) with 2% DMSO. An amount of 10 μL of the solution was added to human serum (40 μL) or to 10% of mice brain homogenate in PBS with 0.5% Triton X-100 (40 μL). All compounds were tested using the same biological samples of human serum and mice brain homogenate to ensure identical deactivation conditions. The solutions were incubated during different time periods at 37° C., after which metabolization was stopped by adding one volume of acetonitrile. Precipitated serum and brain proteins were removed by centrifugation at 14 000g for 10 min. […] The remaining peptide in the supernatant was quantified by HPLC-FLU (Merck Hitachi, Elite LaChrom), (exλ=255 nm and emλ=285 nm, to detect compounds containing phenylalanine, and exλ=275 nm and emλ=307 nm whenever tyrosine is present). Chromatographic conditions were as described for determination of enzyme activities. A calibration curve was built for each compound, and the decay in the concentration of the peptide in the incubated samples was followed until approximately 50% decay. The metabolization kinetics of the synthetic peptides followed a monophasic behaviour in vitro.

[2] = target: T1, BACE-2 (human, recombinant) (Homo sapiens, UniProt Q9Y5Z0); assay: BACE-2 activity assay (fluorogenic substrate, HPLC-FLU); type: biochemical; details: pH 4.5, 37° C.; mean value ± standard deviation, n = 3; read-out: Ki^app BACE-2
T1 construct: purchased Enzo
T1 sequence (Q9Y5Z0 63-518): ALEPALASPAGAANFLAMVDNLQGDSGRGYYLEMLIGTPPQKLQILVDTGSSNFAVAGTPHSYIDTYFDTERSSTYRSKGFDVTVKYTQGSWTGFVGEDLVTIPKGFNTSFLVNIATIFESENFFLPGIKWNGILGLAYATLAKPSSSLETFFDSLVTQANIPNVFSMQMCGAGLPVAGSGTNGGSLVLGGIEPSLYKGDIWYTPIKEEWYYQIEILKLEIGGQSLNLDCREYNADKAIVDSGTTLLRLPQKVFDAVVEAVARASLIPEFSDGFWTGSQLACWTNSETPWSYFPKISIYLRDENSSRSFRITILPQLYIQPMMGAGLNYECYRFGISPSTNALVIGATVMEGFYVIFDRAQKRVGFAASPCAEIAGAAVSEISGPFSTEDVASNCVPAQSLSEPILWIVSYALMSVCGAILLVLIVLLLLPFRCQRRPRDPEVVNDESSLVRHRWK

[3] = set-up: species or system Wistar rats; details: in vivo, iv; for detection in serum samples: rat
Description: Female mice (n=12, 8-12 weeks, weighing 22-37 g) and male Wistar rats (n=8, 8-12 weeks, weighing 182-201 g) were purchased from Harlan Ibérica, Barcelona, Spain. All animals received a standard diet and water ad libitum. Experiments were conducted according to the Home Office Guidance in the Operation of Animals (Scientific Procedures) Act 1986, published by Her Majesty's Stationary Office, London, UK and the Institutional Animal Research Committee Guide for the Care and Use of Laboratory Animals published by the US National Institutes of Health (NIH Publication No. 85-23, revised 1996), as well as to the currently adopted EC regulations (2010/63/EU). Finally, the studies are in compliance with the ARRIVE Guidelines for Reporting Animal Research' summarized at www.nc3rs.org.uk. Before experiments animals were fasted for 24 h.
PBS was used to prepare a solution of Ia for intravenous administration at a dose of 0.53 mg/kg. Experiments were done in triplicate. Mice and Wistar rats were sacrificed at 0.5, 1 and 2 hours after dosing and were previously anesthetized with sodium pentobarbital (6 mg/kg i.p.) for collection of blood by cardiac puncture and brain tissue was perfused by intraventricular injection of 10 mL of chilled saline solution to remove residual blood.
Serum was isolated from the blood samples by centrifugation at 657 g for 10 min, at 4° C. Serum proteins were precipitated with one volume of acetonitrile and were removed by centrifugation at 14000 g for 10 min. Brain was promptly removed and washed with PBS and blotted dry. Meninges were carefully removed. In the case of Wistar rats only cortex and hippocampus were collected while for mice the whole brain was used. The brain samples were homogenized with 2 volumes (V/w) of PBS/acetonitrile/Triton X-100 (50/50/0.5) using firstly a pestle and then a pipette and finally a sonicator. Compound Ic was added as internal standard to best mimic the recovery of compound Ia. The pellet was removed centrifuging at 14000 g for 10 min. Samples were purified by preparative reverse-phase HPLC Using a C18 column (Jupiter, Phenomenex) 250×21.2 mm, 5 μm. Chromatographic conditions were as follow: eluent (A) water/TFA (99.9:0.1, V/V), (B) acetonitrile/water/TFA (90:9.9:0.1, V/V). The linear gradient was started at 80% A, graded to 68% for 2 min and then was kept at 68% for 17 min finally grading to 0% A for 5 min. The flow rate was 10 mL/min and the column was at room temperature. […]
For identification of Ia and its metabolite in Wistar rat brain, samples were analyzed using a 4800plus MALDI-TOF/TOF (AB Sciex) mass spectrometer in the positive reflector MS and MS/MS modes with 3200 laser shots per spectrum and data was collected using the 4000 Series Explorer Software v.3.5.3 (Applied Biosystems). […]

[4] = target: T2, BACE-1 (human, recombinant) (Homo sapiens, UniProt P56817); assay: BACE-1 activity assay (fluorogenic substrate, HPLC-FLU); type: biochemical
T2 construct: purchased Sigma-Aldrich
Excerpt: The program started at 90% A for two min, graded to 70% A during ten min and finally to 0% A during two min.

[5] = mouse, in vivo, iv
[6] = pro-BACE-1, pH 4.5, 37° C., mean value ± standard deviation, n = 3, read-out: Ki BACE-1

T2 sequence (P56817 46-501): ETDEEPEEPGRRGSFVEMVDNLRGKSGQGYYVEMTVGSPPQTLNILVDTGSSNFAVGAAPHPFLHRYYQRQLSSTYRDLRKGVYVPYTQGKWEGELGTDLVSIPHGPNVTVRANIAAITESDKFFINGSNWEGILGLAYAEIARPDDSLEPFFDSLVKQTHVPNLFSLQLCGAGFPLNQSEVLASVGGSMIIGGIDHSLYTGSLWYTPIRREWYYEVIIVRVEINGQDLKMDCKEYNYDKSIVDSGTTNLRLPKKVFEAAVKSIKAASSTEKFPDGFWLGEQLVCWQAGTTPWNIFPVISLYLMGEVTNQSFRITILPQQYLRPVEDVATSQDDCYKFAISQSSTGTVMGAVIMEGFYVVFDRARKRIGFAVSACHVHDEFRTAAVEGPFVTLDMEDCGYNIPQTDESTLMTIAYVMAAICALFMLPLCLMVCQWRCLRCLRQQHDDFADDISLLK

| SMILES | detection in brain samples [1] | detection in serum samples ([1]; half an hour after intravenous Ia 0.53 mg/kg, HPLC-FLU) | half-life at 10 µM (in vitro) | Ki [2] | detection in rat cortex [3] | detection in serum samples [3] | Ki [4, 6] | Ki [4] | concentration in mice brain [5] |
| --- | --- | --- | --- | --- | --- | --- | --- | --- | --- |
| CC(=O)N[C@@H](CCC(=O)O)C(=O)N[C@@H](CC(C)C)C(=O)N[C@@H](CC(=O)O)C(=O)N[C@@H](CC(C)C)[C@@H](O)C[C@@H](C)C(=O)N[C@H](C(=O)N[C@@H](Cc1ccccc1)C(=O)N[C@@H](Cc1ccc(O)cc1)C(=O)N[C@@H](C)C(=O)N[C@@H](CCC(=O)O)C(=O)N[C@@H](CC(=O)O)C(N)=O)C(C)C [Ia] (Ac-ELD[LeuΨ(S-CHOHCH2)Ala]VFYAED-NH2) | could not be detected | not detected | 3.4 h | 18.3 ± 0.5 nM | not detected | detected | 2 ± 0.6 nM |  |  |
| CC(C)C[C@H](NC(=O)[C@@H](N)CCC(=O)O)C(=O)N[C@@H](CC(=O)O)C(=O)N[C@@H](CC(C)C)[C@@H](O)C[C@@H](C)C(=O)N[C@H](C(=O)N[C@@H](Cc1ccccc1)C(=O)N[C@@H](Cc1ccc(O)cc1)C(=O)N[C@@H](C)C(=O)N[C@@H](CCC(=O)O)C(=O)N[C@@H](CC(=O)O)C(N)=O)C(C)C [Ic] (H-ELD[LeuΨ(S-CHOHCH2)Ala]VFYAED-NH2) |  |  | 2.3 ± 0.1 h | 14.2 ± 2.2 nM |  |  | 1.9 ± 0.2 nM | 2 ± 0.1 nM |  |
| CC(C)C[C@H](NC(=O)[C@@H](N)CCC(=O)O)C(=O)N[C@@H](CC(=O)O)C(=O)N[C@@H](CC(C)C)[C@@H](O)C[C@@H](C)C(=O)N[C@H](C(=O)N[C@@H](Cc1ccccc1)C(=O)N[C@@H](Cc1ccc(O)cc1)C(=O)N[C@@H](C)C(=O)N[C@@H](CCC(=O)O)C(=O)N[C@@H](CC(=O)O)C(=O)O)C(C)C [Ig] (H-ELD[LeuΨ(S-CHOHCH2)Ala]VFYAED-OH) | found within therapeutic concentrations |  | 6 ± 0.3 h | 12.7 ± 1.9 nM | detected | detected | 1.7 ± 0.2 nM |  | approximately 20 nM |
| CC(C)C[C@H](NC(=O)[C@@H](N)CCC(=O)O)C(=O)N[C@@H](CC(=O)O)C(=O)N[C@@H](CC(C)C)[C@@H](O)C[C@@H](C)C(=O)N[C@H](C(=O)N[C@@H](CCC(=O)O)C(=O)N[C@@H](Cc1ccccc1)C(=O)O)C(C)C [OM00-3, reference compound] (H-ELD[LeuΨ(S-CHOHCH2)Ala]VEF-OH) |  |  | 5.8 ± 0.7 h | 3 ± 0.3 nM |  |  |  |  |  |
| CC(C)C[C@H](NC(=O)[C@@H](N)CCC(=O)O)C(=O)N[C@@H](CC(=O)O)C(=O)N[C@@H](CC(C)C)[C@@H](O)C[C@@H](C)C(=O)N[C@H](C(=O)N[C@@H](Cc1ccccc1)C(=O)N[C@@H](Cc1ccccc1)C(=O)N[C@@H](C)C(=O)N[C@@H](CCC(=O)O)C(=O)N[C@@H](CC(=O)O)C(N)=O)C(C)C [Id] (H-ELD[LeuΨ(S-CHOHCH2)Ala]VFFAED-NH2) |  |  |  | 7.3 ± 0.9 nM |  |  | 2 ± 0.1 nM |  |  |
